In data set [1] the test system is DAYO medulloblastoma cells. Nature of the data set: Cell viability of DAYO cells (DM1, cD31N-DM1). The format is cell-based. The following applies: after 3 days. The source says:
(§1) Cancer cell lines were acquired from ATCC and cultured according to well known methods in the art. Treatment with cytotoxic agents, antibodies, or ADCs refers to the addition of the cytotoxic agent, antibody or ADC (i.e., DM1 or cD31N-DM1, etc.) to the culture media for a set duration.

Data set [2] has as its system PEO-4 (WT) ovarian adenocarcinoma cells. Nature of the data set: Cell viability of PEO-4 cells. Type of data set: cell-based. The note with it: WT PEO-4 cells, after 5 days.
Excerpt: as §1
(§2) The effects of longer-term treatment with SN38 and cD31N-SN38 on PEO-4 (WT) and PEO-1 (BRCA2^−/−) ovarian cancer cells were investigated.

Data set [3] relates to Capan-1 pancreatic cancer cells. Nature of the data set: Cell viability of Capan-1 cells (DM1, cD31N-DM1). Type of data set: cell-based. The note with it: after 6 days.
Excerpt: as §1

In data set [4] the test system is PEO-1 (BRCA2^−/−) ovarian adenocarcinoma cells. Nature of the data set: Cell viability of PEO-1 cells. The format is cell-based. The following applies: BRCA2-/- PEO-1 cells, after 5 days.
Excerpt: as §1, §2

Data set [5] deals with WT DLD-1 colorectal adenocarcinoma cells. Nature of the data set: Cell viability assay in WT DLD-1 cells. The note with it: after 6 days. Type of data set: cell-based, human.
Excerpt: as §1
(§3) BRCA2 deficient (BRCA2′) cells are more sensitive to DM1 because BRCA2 participates in DNA double-stranded break (DSB) repair.
The viability assay protocol is set forth in Example 3.

The test system of data set [6] is B16 melanoma cells. Nature of the data set: Cell viability of B16 melanoma cells (DM1, cD31N-DM1). The format is cell-based. The following applies: 0.0001 nm to 1000 nm, after 3 days.
Excerpt: as §1

The subject of data set [7] is GL261 glioma cells. Nature of the data set: Cell viability of GL261 cells (DM1, cD31N-DM1). Type of data set: cell-based. The following applies: after 6 days.
Excerpt: as §1

For data set [8], the system named is BRCA2^−/− DLD-1 colorectal adenocarcinoma cells. The experiment in a line: Cell viability assay in BRCA2-/- DLD-1 cells. The format is cell-based, human. The following applies: BRCA2-/- DLD-1 cells, after 6 days.
Excerpt: as §1, §3

In the case of `COc1cc2cc(c1Cl)N(C)C(=O)C[C@H](OC(=O)[C@H](C)N(C)C(=O)CCS)[C@]1(C)O[C@H]1[C@H](C)[C@@H]1C[C@@](O)(NC(=O)O1)[C@H](OC)/C=C/C=C(\C)C2` [DM1, N(2′)-deacetyl-N(2′)-(3-mercapto-1-oxopropyl)-maytansine], the “cytotoxicity (cell viability)” value in data set [1] is “cytotoxic to the DAYO medulloblastoma cells in a concentration-dependent manner”; in data set [2], “cytotoxic”; in data set [3], “cytotoxic to the Capan-1 pancreatic cancer cells in a concentration-dependent manner”; in data set [4] it was “cytotoxic”; in data set [5], “cytotoxic”; in data set [6], “cytotoxic to B16 melanoma cells in a concentration-dependent manner”. The “cytotoxicity (cell viability)” value in data set [7] is listed as “cytotoxic to the GL261 glioma cells in a concentration-dependent manner”; in data set [8] it was “cytotoxic”.

The record behind these values is patent publication US20260207769A1, “ANTIBODY DRUG CONJUGATES” (YALE UNIVERSITY, priority 2022, published 2026).
